Assay results published in ChEMBL document CHEMBL5346891, “Overview of the development of HBV small molecule inhibitors” (Eur J Med Chem, 2023).

Legend:
Hepatitis B virus [1] = test: Antiviral activity against HBV infected in human HepG2.2.15 cells assessed as reduction in HBeAg at 100 ug/ml measured after 7 day by enzyme immunoassay relative to control; assay type: functional; conditions: HepG2.2.15, 168 h
Hepatitis B virus [2] = test: Antiviral activity against HBV infected in human HepG2.2.15 cells assessed as reduction in HBsAg at 100 ug/ml measured after 7 day by enzyme immunoassay relative to control; assay type: functional; conditions: HepG2.2.15, 168 h
Hepatitis B virus [3] = test: Antiviral activity against HBV infected in human HepG2.2.15 cells assessed as reduction in HBsAg measured after 7 day by enzyme immunoassay relative to control; assay type: functional, organism-based; conditions: HepG2.2.15, 168 h
Hepatitis B virus [4] = test: Antiviral activity against HBV infected in human HepG2-NTCP12 cells assessed as reduction in viral DNA measured after 7 days by q-PCR assay; assay type: functional, organism-based; conditions: HepG2-NTCP12, 168 h
Hepatitis B virus [5] = test: Antiviral activity against HBV stably transfected in human HepDES19 cells assessed as reduction in viral DNA measured after 7 days by q-PCR assay; assay type: functional, organism-based; conditions: HepDES19, 168 h
Hepatitis B virus [6] = test: Antiviral activity against HBV infected in human HepDES19 cells assessed as reduction in cccDNA accumulation by southern blot analysis; assay type: functional, organism-based
Hepatitis B virus [7] = test: Antiviral activity against HBV infected in human HepG2.2.15 cells; assay type: functional, organism-based
Hepatitis B virus [8] = test: Antiviral activity against drug-resistant HBV infected in human HepG2.2.15 cells; assay type: functional, organism-based
Hepatitis B virus [9] = test: Antiviral activity against HBV infected in human HepDES19 cells assessed as reduction in viral DNA replication measured after 72 hrs by q-PCR assay; assay type: functional, organism-based; conditions: HepDES19, 72 h
Hepatitis B virus [10] = test: Antiviral activity against HBV infected in human HepG2.2.15 cells assessed as reduction in HBsAg level measured after 144 hrs by ELISA; assay type: functional, organism-based; conditions: HepG2.2.15, 144 h
Hepatitis B virus [11] = test: Antiviral activity against HBV infected in human HepG2.2.15 cells assessed as reduction in HBeAg level measured after 144 hrs by ELISA; assay type: functional, organism-based; conditions: HepG2.2.15, 144 h
Hepatitis B virus [12] = test: Antiviral activity against HBV infected in human HepDES19 cells assessed as reduction in viral rcDNA level measured after 7 days by a branched chain DNA hybridization assay; assay type: functional, organism-based; conditions: HepDES19, 168 h
Hepatitis B virus [13] = test: Antiviral activity against HBV infected in human HePAD38 cells assessed as reduction in cccDNA level; assay type: functional, organism-based
Hepatitis B virus [14] = test: Antiviral activity against HBV infected in human HepG2 cells assessed as reduction in cccDNA transcription level; assay type: functional, organism-based
[15] = Modulation of capsid assembly in HBV genotype C assessed as inhibition of viral replication; assay type: functional, Hepatitis B virus
[16] = Modulation of capsid assembly in HBV genotype H assessed as inhibition of viral replication; assay type: functional, Hepatitis B virus
[17] = Modulation of capsid assembly in HBV genotype F assessed as inhibition of viral replication; assay type: functional, Hepatitis B virus
[18] = Modulation of capsid assembly in HBV genotype D assessed as inhibition of DNA replication; assay type: functional, Hepatitis B virus
[19] = Modulation of capsid assembly in HBV genotype G assessed as inhibition of viral replication; assay type: functional, Hepatitis B virus
[20] = Modulation of capsid assembly in HBV genotype A assessed as inhibition of viral replication; assay type: functional, Hepatitis B virus
[21] = Modulation of capsid assembly in HBV genotype B assessed as inhibition of viral replication; assay type: functional, Hepatitis B virus
[22] = Modulation of capsid assembly in HBV genotype E assessed as inhibition of viral replication; assay type: functional, Hepatitis B virus
Hepatitis B virus [23] = test: Antiviral activity against HBV infected in human HepG2.2.15 cells assessed as reduction in cccDNA transcription; assay type: functional, organism-based
Hepatitis B virus [24] = test: Antiviral activity against HBV infected in human HePAD38 cells assessed as inhibition of viral replication; assay type: functional, organism-based
Hepatitis B virus [25] = test: Antiviral activity against HBV infected in human HepG2.2.15 cells assessed as inhibition of viral replication; assay type: functional, organism-based
Hepatitis B virus [26] = test: Antiviral activity against HBV infected in human HepDE19 cells assessed as inhibition of viral replication; assay type: functional, organism-based
Hepatitis B virus [27] = test: Antiviral activity against HBV infected in human Primary hepatocyte cells assessed as reduction in pgRNA level; assay type: functional, organism-based
Hepatitis B virus [28] = test: Antiviral activity against HBV infected in human Primary hepatocyte cells assessed as reduction in HBeAg level; assay type: functional, organism-based
Hepatitis B virus [29] = test: Antiviral activity against HBV infected in human HepG2-hNTCP cells assessed as reduction in pgRNA level; assay type: functional, organism-based
Hepatitis B virus [30] = test: Antiviral activity against HBV infected in human HepG2-hNTCP cells assessed as reduction in HBsAg level; assay type: functional, organism-based
Hepatitis B virus [31] = test: Antiviral activity against HBV infected in human HepG2-hNTCP cells assessed as reduction in HBeAg level; assay type: functional, organism-based
Hepatitis B virus [32] = test: Antiviral activity against HBV infected in human HepG2.2.15 cells assessed as reduction in viral DNA level; assay type: functional, organism-based
Hepatitis B virus [33] = test: Antiviral activity against HBV infected in human Primary hepatocyte cells assessed as reduction in HBsAg level; assay type: functional, organism-based

O=C(/C=C/c1ccc(O)c(O)c1)O[C@@H]1C[C@](O)(C(=O)O)C[C@@H](OC(=O)/C=C/c2ccc(O)c(O)c2)[C@H]1O
inhibition at 100 µg/mL (Hepatitis B virus [1]): 73% | inhibition at 100 µg/mL (Hepatitis B virus [2]): 81% | EC50 (Hepatitis B virus [3]): 90500 nM

O=C(/C=C/c1ccc(O)c(O)c1)O[C@@H]1[C@H](O)C[C@@](O)(C(=O)O)C[C@H]1OC(=O)/C=C/c1ccc(O)c(O)c1
inhibition at 100 µg/mL (Hepatitis B virus [1]): 81% | inhibition at 100 µg/mL (Hepatitis B virus [2]): 90% | EC50 (Hepatitis B virus [3]): 31900 nM

CC(=O)c1cc(O)c(=O)c(O)cc1C
EC50 (Hepatitis B virus [4]): 57 nM | EC50 (Hepatitis B virus [5]): 290 nM

Cc1nc2cc(NC(=O)c3ccc(S(=O)(=O)N(C)Cc4ccccc4)cc3)ccc2s1
EC50 (Hepatitis B virus [6]): 3000 nM

O=C(CN(c1cc(C(F)(F)F)ccc1Cl)S(=O)(=O)c1ccccc1)NCc1ccncc1
EC50 (Hepatitis B virus [6]): 10000 nM

CCOC(=O)C1=C(CN2CCOCC2)NC(c2nccs2)=N[C@H]1c1ccc(F)cc1Br
EC50 (Hepatitis B virus [7]): 1 nM | EC50 (Hepatitis B virus [8]): 10 nM

C/C(=N\OCc1ccccc1)c1c(C)cc(=O)n(O)c1O
EC50 (Hepatitis B virus [9]): 540 nM

C=C(C)[C@@H]1CC[C@]2(C(=O)OC)CC[C@]3(COC(=O)c4ccccc4)[C@H](CC[C@@H]4[C@@]5(C)CC[C@H](OC(C)=O)C(C)(C)[C@@H]5CC[C@]43C)[C@H]12
EC50 (Hepatitis B virus [10]): 8900 nM | EC50 (Hepatitis B virus [11]): 8900 nM

COc1ccc(CO/N=C(\C)c2c(C)cc(=O)n(O)c2O)cc1
EC50 (Hepatitis B virus [12]): 400 nM | EC50 (Hepatitis B virus [9]): 260 nM

C/C(=N\OCc1ccc(F)cc1)c1c(C)cc(=O)n(O)c1O
EC50 (Hepatitis B virus [12]): 100 nM | EC50 (Hepatitis B virus [9]): 110 nM

C/C(=N\OCc1ccc(C)cc1)c1c(C)cc(=O)n(O)c1O
EC50 (Hepatitis B virus [9]): 460 nM

COc1ccccc1CO/N=C(\C)c1c(C)cc(=O)n(O)c1O
EC50 (Hepatitis B virus [9]): 500 nM

C/C(=N\OCc1ccccc1F)c1c(C)cc(=O)n(O)c1O
EC50 (Hepatitis B virus [12]): 330 nM | EC50 (Hepatitis B virus [9]): 320 nM

Cc1c(C(=O)C(=O)NCC#N)c(C)n(C)c1C(=O)Nc1ccc(F)c(F)c1
EC50 (Hepatitis B virus [13]): 3 nM

Cc1c(O)c2cc(Br)cnc2n(O)c1=O
EC50 (Hepatitis B virus [4]): 78 nM | EC50 (Hepatitis B virus [5]): 1500 nM

CN[C@@H](C)C(=O)N[C@H]1CN(S(=O)(=O)c2cccc(S(=O)(=O)N3CC[C@H]4CC[C@@H](C(=O)NC(c5ccccc5)c5ccccc5)N4C(=O)[C@@H](NC(=O)[C@H](C)NC)C3)c2)CC[C@H]2CC[C@@H](C(=O)NC(c3ccccc3)c3ccccc3)N2C1=O
EC50 (Hepatitis B virus [14]): 20 nM

C[C@H](NS(=O)(=O)c1cc(C(=O)Nc2ccc(F)c(C#N)c2)n(C)c1)C(F)(F)F [BERSACAPAVIR]
EC50 [15]: 10 nM | EC50 [16]: 10 nM | EC50 [17]: 10 nM | EC50 [18]: 17 nM | EC50 [19]: 10 nM | EC50 [20]: 10 nM | EC50 [21]: 10 nM | EC50 [22]: 10 nM

O=C1OCc2c1cc1ccc3c(c1c2-c1ccc2c(c1)OCO2)OCO3 [HELIOXANTHIN]
EC50 (Hepatitis B virus [23]): 160 nM

CCOC(=O)C1=C(CN2CCN3C(=O)N(CC(C)(C)C(=O)O)C[C@@H]3C2)N=C(c2nccs2)N[C@H]1c1cccc(F)c1C [LINVENCORVIR]
EC50 (Hepatitis B virus [24]): 18 nM | EC50 (Hepatitis B virus [25]): 17 nM | EC50 (Hepatitis B virus [26]): 27 nM

O=C(NCc1cnc(C(F)(F)F)s1)c1ccc2c(c1)NC(=O)c1ccccc1S2(=O)=O [VEBICORVIR]
EC50 (Hepatitis B virus [27]): 1840 nM | EC50 (Hepatitis B virus [28]): 1840 nM | EC50 (Hepatitis B virus [29]): 1840 nM | EC50 (Hepatitis B virus [30]): 1840 nM | EC50 (Hepatitis B virus [31]): 1840 nM | EC50 (Hepatitis B virus [32]): 173 nM | EC50 (Hepatitis B virus [33]): 1840 nM
